Test results as given in patent US8747901B2 (Reata Pharmaceuticals, Inc., priority 2009, dated 2014).

Details: human, in vivo
Procedure: The synthetic triterpenoid bardoxolone methyl, also known as CDDO-Me and as “RTA 402,” has shown potent anti-inflammatory and anti-tumor properties in preclinical studies and in human clinical trials. […] In these studies bardoxolone methyl was administered orally in a crystalline form (“Form A”), once daily, at a variety of doses.

oral bioavailability: relatively low oral bioavailability
Compound: COC(=O)[C@]12CCC(C)(C)C[C@H]1[C@H]1C(=O)C=C3[C@@]4(C)C=C(C#N)C(=O)C(C)(C)[C@@H]4CC[C@@]3(C)[C@]1(C)CC2 [Form A bardoxolone methyl, bardoxolone methyl]
tolerability profile (po): excellent tolerability profile with very few drug-related side effects
